Assay results reported in PubChem BioAssay AID1259407 (Chemical Carcinogenesis Research Information System (CCRIS), 2018).
The source made the active and inactive calls. How the calls were made is not given here.

Test system: CCRIS mutagenicity, Ames/micronucleus/aberration tests
Experiment: CCRIS mutagenicity studies
[1] = Test System: AMES SALMONELLA TYPHIMURIUM, Strain/Indicator: TA98, Metabolic Activation: NONE, Method: PREINCUBATION
[2] = Test System: AMES SALMONELLA TYPHIMURIUM, Strain/Indicator: TA100, Metabolic Activation: NONE, Method: PREINCUBATION
[3] = Test System: AMES SALMONELLA TYPHIMURIUM, Strain/Indicator: TA98, Metabolic Activation: NONE, Method: STANDARD PLATE
[4] = Test System: AMES SALMONELLA TYPHIMURIUM, Strain/Indicator: TA100, Metabolic Activation: NONE, Method: STANDARD PLATE
[5] = Test System: AMES SALMONELLA TYPHIMURIUM, Strain/Indicator: TA1535, Metabolic Activation: NONE, Method: STANDARD PLATE
[6] = Test System: AMES SALMONELLA TYPHIMURIUM, Strain/Indicator: TA1538, Metabolic Activation: NONE, Method: STANDARD PLATE

Measured: mutagenic call

c1ccc2c(c1)Nc1ccccc1S2
inactive: Test System: AMES SALMONELLA TYPHIMURIUM, Strain/Indicator: TA98, Metabolic Activation: HAMSTER, LIVER, S-9, AROCLOR 1254 (10%), Method: PREINCUBATION inactive; negative | [1] inactive; negative | Test System: AMES SALMONELLA TYPHIMURIUM, Strain/Indicator: TA98, Metabolic Activation: NONE, Method: SPOT TEST inactive; negative | Test System: AMES SALMONELLA TYPHIMURIUM, Strain/Indicator: TA98, Metabolic Activation: RAT, LIVER, S-9, AROCLOR 1254 (10%), Method: PREINCUBATION inactive; negative | Test System: AMES SALMONELLA TYPHIMURIUM, Strain/Indicator: TA100, Metabolic Activation: HAMSTER, LIVER, S-9, AROCLOR 1254 (10%), Method: PREINCUBATION inactive; negative | [2] inactive; negative | Test System: AMES SALMONELLA TYPHIMURIUM, Strain/Indicator: TA100, Metabolic Activation: RAT, LIVER, S-9, AROCLOR 1254 (10%), Method: PREINCUBATION inactive; negative | Test System: AMES SALMONELLA TYPHIMURIUM, Strain/Indicator: TA1535, Metabolic Activation: HAMSTER, LIVER, S-9, AROCLOR 1254 (10%), Method: PREINCUBATION inactive; negative | Test System: AMES SALMONELLA TYPHIMURIUM, Strain/Indicator: TA1535, Metabolic Activation: NONE, Method: PREINCUBATION inactive; negative | Test System: AMES SALMONELLA TYPHIMURIUM, Strain/Indicator: TA1535, Metabolic Activation: RAT, LIVER, S-9, AROCLOR 1254 (10%), Method: PREINCUBATION inactive; negative | Test System: AMES SALMONELLA TYPHIMURIUM, Strain/Indicator: TA1537, Metabolic Activation: HAMSTER, LIVER, S-9, AROCLOR 1254 (10%), Method: PREINCUBATION inactive; negative | Test System: AMES SALMONELLA TYPHIMURIUM, Strain/Indicator: TA1537, Metabolic Activation: NONE, Method: PREINCUBATION inactive; negative | Test System: AMES SALMONELLA TYPHIMURIUM, Strain/Indicator: TA1537, Metabolic Activation: RAT, LIVER, S-9, AROCLOR 1254 (10%), Method: PREINCUBATION inactive; negative

Nc1ccc(N=Nc2ccc3c(c2)C(=O)/C(=N/Nc2ccc(Nc4ccc(N/N=C5/C(=O)c6cc(N=Nc7ccc(N)cc7N)ccc6C=C5S(=O)(=O)O)cc4S(=O)(=O)O)cc2)C(S(=O)(=O)O)=C3)c(N)c1
active: Test System: AMES SALMONELLA TYPHIMURIUM, Strain/Indicator: TA98, Metabolic Activation: HAMSTER LIVER S-9, Method: PREINCUBATION active; positive | Test System: AMES SALMONELLA TYPHIMURIUM, Strain/Indicator: TA98, Metabolic Activation: HAMSTER, LIVER, S-9, AROCLOR 1254, Method: STANDARD PLATE active; positive | Test System: AMES SALMONELLA TYPHIMURIUM, Strain/Indicator: TA98, Metabolic Activation: HAMSTER, LIVER, S-9, Method: PREINCUBATION (PRIVAL METHOD) active; positive | [1] active; positive | [3] active; positive | Test System: AMES SALMONELLA TYPHIMURIUM, Strain/Indicator: TA98, Metabolic Activation: RAT LIVER S-9, AROCLOR 1254, Method: PREINCUBATION active; positive | Test System: AMES SALMONELLA TYPHIMURIUM, Strain/Indicator: TA98, Metabolic Activation: RAT, LIVER, S-9, AROCLOR 1254, Method: STANDARD PLATE active; positive | Test System: AMES SALMONELLA TYPHIMURIUM, Strain/Indicator: TA100, Metabolic Activation: HAMSTER LIVER S-9, Method: PREINCUBATION active; positive | Test System: AMES SALMONELLA TYPHIMURIUM, Strain/Indicator: TA1535, Metabolic Activation: HAMSTER, LIVER, S-9, AROCLOR 1254, Method: STANDARD PLATE active; positive | Test System: AMES SALMONELLA TYPHIMURIUM, Strain/Indicator: TA1537, Metabolic Activation: HAMSTER, LIVER, S-9, AROCLOR 1254, Method: STANDARD PLATE active; positive | Test System: AMES SALMONELLA TYPHIMURIUM, Strain/Indicator: TA1537, Metabolic Activation: RAT, LIVER, S-9, AROCLOR 1254, Method: STANDARD PLATE active; positive | Test System: AMES SALMONELLA TYPHIMURIUM, Strain/Indicator: TA1538, Metabolic Activation: HAMSTER, LIVER, S-9, AROCLOR 1254, Method: STANDARD PLATE active; positive | [6] active; positive | Test System: AMES SALMONELLA TYPHIMURIUM, Strain/Indicator: TA1538, Metabolic Activation: RAT, LIVER, S-9, AROCLOR 1254, Method: STANDARD PLATE active; positive
inactive: Test System: AMES SALMONELLA TYPHIMURIUM, Strain/Indicator: TA100, Metabolic Activation: HAMSTER, LIVER, S-9, AROCLOR 1254, Method: STANDARD PLATE inactive; negative | [2] inactive; negative | [4] inactive; negative | Test System: AMES SALMONELLA TYPHIMURIUM, Strain/Indicator: TA100, Metabolic Activation: RAT LIVER S-9, AROCLOR 1254, Method: PREINCUBATION inactive; negative | Test System: AMES SALMONELLA TYPHIMURIUM, Strain/Indicator: TA100, Metabolic Activation: RAT, LIVER, S-9, AROCLOR 1254, Method: STANDARD PLATE inactive; negative | [5] inactive; negative | Test System: AMES SALMONELLA TYPHIMURIUM, Strain/Indicator: TA1535, Metabolic Activation: RAT, LIVER, S-9, AROCLOR 1254, Method: STANDARD PLATE inactive; negative | Test System: MOUSE LYMPHOMA, Strain/Indicator: L5178Y (TK+/TK-), Metabolic Activation: NONE, Method: SUSPENSION/PLATE inactive; negative | Test System: MOUSE LYMPHOMA, Strain/Indicator: L5178Y (TK+/TK-), Metabolic Activation: RAT, LIVER, S-9, AROCLOR 1254, Method: SUSPENSION/PLATE inactive; negative

NC(=O)N(CC(=O)O)N=O
active: Test System: E. COLI B, Strain/Indicator: H/R30R, Metabolic Activation: NONE active; positive | Test System: E. COLI B, Strain/Indicator: HS30R, Metabolic Activation: NONE active; positive

CN(C)CCCNc1c2ccccc2nc2ccc([N+](=O)[O-])cc12
inactive: Test System: CHINESE HAMSTER V-79, Strain/Indicator: V-79/6-THIOGUANINE, Metabolic Activation: NONE, Method: STANDARD PLATE inactive; negative | Test System: CHINESE HAMSTER V-79, Strain/Indicator: V-79/OUABAIN, Metabolic Activation: NONE, Method: STANDARD PLATE inactive; negative
active: Test System: AMES SALMONELLA TYPHIMURIUM, Strain/Indicator: TA98(1,8-DNP6), Metabolic Activation: NONE, Method: STANDARD PLATE active; positive | Test System: AMES SALMONELLA TYPHIMURIUM, Strain/Indicator: TA98(1,8-DNP6), Metabolic Activation: RAT, LIVER, S-9, Method: STANDARD PLATE active; positive | Test System: AMES SALMONELLA TYPHIMURIUM, Strain/Indicator: TA98(NR), Metabolic Activation: NONE, Method: STANDARD PLATE active; positive | Test System: AMES SALMONELLA TYPHIMURIUM, Strain/Indicator: TA98(NR), Metabolic Activation: RAT, LIVER, S-9, Method: STANDARD PLATE active; positive | [3] active; positive | Test System: AMES SALMONELLA TYPHIMURIUM, Strain/Indicator: TA98, Metabolic Activation: RAT, LIVER, S-9, Method: STANDARD PLATE active; positive | [4] active; positive | [5] active; positive | Test System: AMES SALMONELLA TYPHIMURIUM, Strain/Indicator: TA1537, Metabolic Activation: NONE, Method: STANDARD PLATE active; positive | Test System: AMES SALMONELLA TYPHIMURIUM, Strain/Indicator: TA1537 PKM101, Metabolic Activation: NONE, Method: STANDARD PLATE active; positive | [6] active; positive | Test System: Escherichia coli, Strain/Indicator: CC107 (G6 to G7 frameshifts), Metabolic Activation: None, Method: Modified preincubation active; positive | Test System: Escherichia coli, Strain/Indicator: CC108 (G6 to G5 frameshifts), Metabolic Activation: None, Method: Modified preincubation active; positive | Test System: Escherichia coli, Strain/Indicator: CC109 (CG5 to CG4 frameshifts), Metabolic Activation: None, Method: Modified preincubation active; positive | Test System: Escherichia coli, Strain/Indicator: CC111 (A7 to A6 frameshifts), Metabolic Activation: None, Method: Modified preincubation active; positive
